Measured values taken from patent publication US20240246937A1 (MERCK SHARP & DOHME LLC, priority 2021, published 2024).

Target: recombinant IL4I1 (Homo sapiens (Human), UniProt Q96RQ9)
Assay: IL4I1 Enzymatic Assay (Amplex Red/HRP coupled fluorescence detection of H2O2)
Type: biochemical
Conditions: 240 min; recombinant IL4I1, four-hour pre-incubation with compound
Outline: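 Recombinant human IL4I1 (1 nM final) pre-incubated 4 h with compound at ambient temperature in 50 mM Hepes pH 7.0, 0.005% Tween20. Started with 1 mM each Phe/Tyr/Trp plus Amplex Red/HRP; H2O2-derived resorufin fluorescence read after 120 min; EC50 from ten-point 1:3 titration, four-parameter fit.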

Sequence of recombinant IL4I1 (Q96RQ9 22-567): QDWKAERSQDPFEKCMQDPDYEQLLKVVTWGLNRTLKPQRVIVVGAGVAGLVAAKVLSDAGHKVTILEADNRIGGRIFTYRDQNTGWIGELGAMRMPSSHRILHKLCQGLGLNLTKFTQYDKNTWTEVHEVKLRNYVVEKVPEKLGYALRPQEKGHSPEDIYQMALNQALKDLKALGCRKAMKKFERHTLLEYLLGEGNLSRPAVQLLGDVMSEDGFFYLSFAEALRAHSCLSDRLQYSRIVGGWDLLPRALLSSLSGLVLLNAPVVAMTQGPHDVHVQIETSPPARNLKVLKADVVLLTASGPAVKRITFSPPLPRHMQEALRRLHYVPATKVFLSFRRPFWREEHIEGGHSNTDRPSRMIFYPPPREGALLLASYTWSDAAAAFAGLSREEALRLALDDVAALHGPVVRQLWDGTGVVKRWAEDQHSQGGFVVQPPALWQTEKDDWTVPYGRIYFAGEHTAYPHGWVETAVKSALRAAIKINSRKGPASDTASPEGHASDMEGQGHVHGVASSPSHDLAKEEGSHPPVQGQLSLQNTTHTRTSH

| Structure (SMILES) | EC50 |
| --- | --- |
| CC1(N2CCN(Cc3nnc(-c4ccccc4)s3)C(=O)C2=O)CC1 [Example 303, 1-(1-methylcyclopropyl)-4-((5-phenyl-1,3,4-thiadiazol-2-yl)methyl)piperazine-2,3-dione] | 28 nM |
| O=C1C(=O)N(C23CC(C2)C3)CCN1Cc1cnc(-n2nccn2)cn1 [Example 325, 1-((5-(2H-1,2,3-triazol-2-yl)pyrazin-2-yl)methyl)-4-(bicyclo[1.1.1]pentan-1-yl)piperazine-2,3-dione] | 33 nM |
| O=c1c(=O)n(C23CC(C2)C3)ccn1Cc1cc(-c2ccc(F)cc2)on1 [Example 419, 1-(bicyclo[1.1.1]pentan-1-yl)-4-((5-(4-fluorophenyl)isoxazol-3-yl)methyl)-1,4-dihydropyrazine-2,3-dione] | 2 nM |
| O=C1C(=O)N(C2CCC2)CCN1Cc1cnc(-n2nccn2)cn1 [Example 324, 1-((5-(2H-1,2,3-triazol-2-yl)pyrazin-2-yl)methyl)-4-cyclobutylpiperazine-2,3-dione] | 53 nM |
| O=C1C(=O)N(C2CCCC2)CCN1Cc1ccc(N2CCCC2)nn1 [Example 314, 1-cyclopentyl-4-((6-(pyrrolidin-1-yl)pyridazin-3-yl)methyl)piperazine-2,3-dione] | 43 nM |
| O=C1C(=O)N(C23CC(C2)C3)CCN1Cc1nnc(-c2ccccc2Cl)s1 [Example 179, 1-(bicyclo[1.1.1]pentan-1-yl)-4-((5-(2-chlorophenyl)-1,3,4-thiadiazol-2-yl)methyl)piperazine-2,3-dione] | 13 nM |
| O=C1C(=O)N([C@@H]2CC[C@@H](c3ccccc3)C2)CCN1Cc1nnc(-c2ccccc2)s1 (single isomer, unassigned) [Example 440C, (R or S, R or S)-1-((5-phenyl-1,3,4-thiadiazol-2-yl)methyl)-4-(3-phenylcyclopentyl)piperazine-2,3-dione] | 10 nM |
| O=C1C(=O)N(C23CC(F)(C2)C3)CCN1Cc1ccc(-n2cccn2)nc1 [Example 237, 1-((6-(1H-pyrazol-1-yl)pyridin-3-yl)methyl)-4-(3-fluorobicyclo[1.1.1]pentan-1-yl)piperazine-2,3-dione] | 346 nM |
| CC(C)(C)N1CCN(Cc2nnc(-c3ccccc3)s2)C(=O)C1=O [Example 307, 1-(tert-butyl)-4-((5-phenyl-1,3,4-thiadiazol-2-yl)methyl)piperazine-2,3-dione] | 20 nM |
| CC1(n2ccn(Cc3ccc(-n4nccn4)nn3)c(=O)c2=O)CC1 [Example 332, 1-((6-(2H-1,2,3-triazol-2-yl)pyridazin-3-yl)methyl)-4-(1-methylcyclopropyl)-1,4-dihydropyrazine-2,3-dione] | 76 nM |
| O=C1C(=O)N(C2CCC2)CCN1Cc1ncc(-c2cccc(F)c2)s1 [Example 425, 1-cyclobutyl-4-((5-(3-fluorophenyl)thiazol-2-yl)methyl)piperazine-2,3-dione] | 8 nM |
| O=C1C(=O)N(C2CCCC2)CCN1Cc1ncc(-c2cncs2)cc1F [Example 10, 1-cyclopentyl-4-((3-fluoro-5-(thiazol-5-yl)pyridin-2-yl)methyl)piperazine-2,3-dione] | 21 nM |
| CC1(N2CCN(Cc3cc(-c4ccccc4)on3)C(=O)C2=O)CCC1 [Example 167, 1-(1-methylcyclobutyl)-4-((5-phenylisoxazol-3-yl)methyl)piperazine-2,3-dione] | 9 nM |
| O=C1C(=O)N(C23CC(C2)C3)CCN1Cc1cc(-c2ccccc2)on1 [Example 146, 1-(bicyclo[1.1.1]pentan-1-yl)-4-((5-phenylisoxazol-3-yl)methyl)piperazine-2,3-dione] | 3 nM |
| O=C1C(=O)N(C2(CF)CC2)CCN1Cc1nnc(-c2ccccc2)s1 [Example 305, 1-(1-(fluoromethyl)cyclopropyl)-4-((5-phenyl-1,3,4-thiadiazol-2-yl)methyl)piperazine-2,3-dione] | 32 nM |
| CC1(N2CCN(Cc3cc(-c4cccc(F)c4)no3)C(=O)C2=O)CCC1 [Example 185, 1-((3-(3-fluorophenyl)isoxazol-5-yl)methyl)-4-(1-methylcyclobutyl)piperazine-2,3-dione] | 8 nM |
| COCC(C)(C)N1CCN(Cc2nnc(-c3ccccc3)s2)C(=O)C1=O [Example 299, 1-(1-methoxy-2-methylpropan-2-yl)-4-((5-phenyl-1,3,4-thiadiazol-2-yl)methyl)piperazine-2,3-dione] | 56 nM |

Results, then the compound that gave them:

| EC50 | Structure (SMILES) |
| --- | --- |
| 4 nM | CC1(n2ccn(Cc3cc(-c4cccc(F)c4)no3)c(=O)c2=O)CCC1 [Example 186, 1-((3-(3-fluorophenyl)isoxazol-5-yl)methyl)-4-(1-methylcyclobutyl)-1,4-dihydropyrazine-2,3-dione] |
| 6 nM | O=C1C(=O)N(C2CCCC2)CCN1Cc1ccc(-c2cccc(F)c2)nn1 [Example 14, 1-cyclopentyl-4-((6-(3-fluorophenyl)pyridazin-3-yl)methyl)piperazine-2,3-dione] |
| 6 nM | O=C1C(=O)N(C23CC(C2)C3)CCN1Cc1ccc(-c2ccccc2)nc1 [Example 122, 1-(bicyclo[1.1.1]pentan-1-yl)-4-((6-phenylpyridin-3-yl)methyl)piperazine-2,3-dione] |
| 2 nM | O=C1C(=O)N(C2CCC2)CCN1Cc1cc(-c2ccccc2)no1 [Example 148, 1-cyclobutyl-4-((3-phenylisoxazol-5-yl)methyl)piperazine-2,3-dione] |
| 5 nM | O=c1c(=O)n(C23CC(C2)C3)ccn1Cc1nnc(-c2ccccc2F)s1 [Example 68, 1-(bicyclo[1.1.1]pentan-1-yl)-4-((5-(2-fluorophenyl)-1,3,4-thiadiazol-2-yl)methyl)-1,4-dihydropyrazine-2,3-dione] |
| 3 nM | O=c1c(=O)n(C2CCCC2)ccn1Cc1cnc(-c2ccccc2)cn1 [Example 126, 1-cyclopentyl-4-((5-phenylpyrazin-2-yl)methyl)-1,4-dihydropyrazine-2,3-dione] |
| 2 nM | O=c1c(=O)n([C@H]2C[C@H]3C[C@H]3C2)ccn1Cc1nnc(-c2ccc(F)cc2)s1 [Example 41, 1-((cis)-bicyclo[3.1.0]hexan-3-yl)-4-((5-(4-fluorophenyl)-1,3,4-thiadiazol-2-yl)methyl)-1,4-dihydropyrazine-2,3-dione] |
| 2 nM | O=c1c(=O)n([C@H]2C[C@H]3C[C@H]3C2)ccn1Cc1cnc(-c2ccccc2)c(F)c1 [Example 128, 1-((cis)-bicyclo[3.1.0]hexan-3-yl)-4-((5-fluoro-6-phenylpyridin-3-yl)methyl)-1,4-dihydropyrazine-2,3-dione] |
| 101 nM | O=c1c(=O)n(C23CC(F)(C2)C3)ccn1Cc1cc(-c2cccnc2)no1 [Example 224, 1-(3-fluorobicyclo[1.1.1]pentan-1-yl)-4-((3-(pyridin-3-yl)isoxazol-5-yl)methyl)-1,4-dihydropyrazine-2,3-dione] |
| 100 nM | O=c1c(=O)n(C2(CF)CC2)ccn1Cc1ccc(-c2ccccn2)cn1 [Example 251, 1-([2,3′-bipyridin]-6′-ylmethyl)-4-(1-(fluoromethyl)cyclopropyl)-1,4-dihydropyrazine-2,3-dione] |
| 19 nM | O=C1C(=O)N(C2CCCC2)CCN1Cc1cnn(-c2ccccc2)c1 [Example 273, 1-cyclopentyl-4-((1-phenyl-1H-pyrazol-4-yl)methyl)piperazine-2,3-dione] |
| 1 nM | O=c1c(=O)n(C2CCC2)ccn1Cc1cc(-c2cccc(F)c2)no1 [Example 157, 1-cyclobutyl-4-((3-(3-fluorophenyl)isoxazol-5-yl)methyl)-1,4-dihydropyrazine-2,3-dione] |
| 18 nM | C[C@H](c1nnc(-c2ccccc2)s1)N1CCN(C2CCCC2)C(=O)C1=O [Example 348, (R)-1-cyclopentyl-4-(1-(5-phenyl-1,3,4-thiadiazol-2-yl)ethyl)piperazine-2,3-dione] |
| 23 nM | O=C1C(=O)N(C2CC(c3ccccc3)C2)CCN1Cc1ncc(-c2ccccc2)cn1 (stereo not drawn) [Example 141, 1-(3-phenylcyclobutyl)-4-((5-phenylpyrimidin-2-yl)methyl)piperazine-2,3-dione] |
| 15 nM | O=C1C(=O)N(C2CCCC2)CCN1Cc1ccc(-c2ccccc2F)nn1 [Example 9, 1-cyclopentyl-4-((6-(2-fluorophenyl)pyridazin-3-yl)methyl)piperazine-2,3-dione] |
| 23 nM | O=C1C(=O)N(C23CC(C2)C3)CCN1Cc1ccc(-c2ccccc2)nn1 [Example 38, 1-(bicyclo[1.1.1]pentan-1-yl)-4-((6-phenylpyridazin-3-yl)methyl)piperazine-2,3-dione] |
| 5 nM | O=c1c(=O)n([C@H]2C[C@H]3C[C@H]3C2)ccn1Cc1nnc(-c2ccccc2F)s1 [Example 45, 1-((cis)-bicyclo[3.1.0]hexan-3-yl)-4-((5-(2-fluorophenyl)-1,3,4-thiadiazol-2-yl)methyl)-1,4-dihydropyrazine-2,3-dione] |
| 8 nM | O=C1C(=O)N(C2CCC2)CCN1Cc1ccc(-c2ccccc2)nn1 [Example 12, 1-cyclobutyl-4-((6-phenylpyridazin-3-yl)methyl)piperazine-2,3-dione] |
| 2 nM | O=C1C(=O)N(C2CCCC2)CCN1Cc1cc(-c2ccccc2)no1 [Example 358A, 1-cyclopentyl-4-((3-phenylisoxazol-5-yl)methyl)piperazine-2,3-dione] |
| 30 nM | O=c1c(=O)n(C23CC(F)(C2)C3)ccn1Cc1ccc(-c2ccccc2F)nn1 [Example 201, 1-(3-fluorobicyclo[1.1.1]pentan-1-yl)-4-((6-(2-fluorophenyl)pyridazin-3-yl)methyl)-1,4-dihydropyrazine-2,3-dione] |
| 30 nM | O=C1C(=O)N(C2CCCC2)CCN1Cc1ccc(-c2cn[nH]c2)nc1 [Example 24, 1-((6-(1H-pyrazol-4-yl)pyridin-3-yl)methyl)-4-cyclopentylpiperazine-2,3-dione] |
| 43 nM | N#CC1(n2ccn(Cc3cc(-c4ccccn4)on3)c(=O)c2=O)CC1 [Example 207, 1-(2,3-dioxo-4-((5-(pyridin-2-yl)isoxazol-3-yl)methyl)-3,4-dihydropyrazin-1(2H)-yl)cyclopropane-1-carbonitrile] |
